Data on 18 molecules can be found in patent US20250101003A1, “SPIROCYCLIC CAV2.3 ANTAGONISTS” (LARIO THERAPEUTICS LIMITED, priority 2021, published 2025).

For the experiment, the target named is Cav2.3 (Homo sapiens, UniProt Q15878). In words: Human Cav2.3 channel calcium-influx assay. As to conditions: HEK-293 T-Rex/Kir2.1/Cav2.3e-β4-α2δ1 cells, Fluo8 fluorescence, without pluronic acid; read-out: Cav2.3 (pIC50) (converted). The format is cell-based. The protocol:
HEK-293 T-Rex cells were transfected with pcDNA3.1-Kir2.1 to generate a stable cell line. After antibiotic selection, the obtained stable pools were analysed using FLIPR^TETRA (membrane potential assay), and a limiting dilution was performed and a HEK-293 T-Rex/Kir2.1 clone was selected. The clone was transfected with pcDNA3.1-Cav2.3e and pBud-Cav-β4-α2δ1 to generate a stable cell line where the Cav2.3e expression is inducible. After antibiotic selection, functional clone pool analysis and two successive limiting dilutions, the final clone underwent a qPCR analysis and a biophysical and pharmacological validation using patch-clamp.
A compound plate, containing 10 test compounds in eight-points dose response with n=4, was prepared. Test compounds dose response curves were prepared in automated fashion in 100% DMSO at CyBio Felix and starting from a stock solution in 100% DMSO; a defined volume was serially moved into destination wells pre-filled with the desired DMSO volume; stock solution concentration volumes were dependent on the final compounds concentrations to be tested and the final DMSO content used in the assay. For the assay test compounds dose response curves ranged from 30 μM and half log dilution with 0.3% final DMSO. In order to obtain the 8-points dose response curve all the concentrations were created by starting from a 10 mM DMSO stock solution and then moving 9.5 μL into a destination well pre-filled with 20.5 μL of 100% DMSO and repeating this step seven times. This initial step was done into 96 MTP plates, 10 compounds/plate. One 384 MTP was then reformatted to contain all the 10 compounds at 8 concentrations, quadruplicate data points. This so obtained 384 MTP compound plate served as source plate in a “mother to child” process with a CyBi®-Well dispenser in which 0.7 μL of compounds were moved into a destination plate pre-filled with 57.6 μL of Tyrode's buffer 0 mM K+, thus obtaining 4× concentrated compounds solution. In columns 1-2 and 23-24 the control wells were added. Both “source” compound plate and “destination” compound plate were barcoded and a relationship between the two plates was thus generated.
The day before the experiment, cells were detached by gentle wash with DPBS, followed by 5 min incubation at 37° C. with Trypsin solution. Detached cells were diluted with OptiMEM+Doxycycline at 0.2 μg/mL, counted and plated in Poly-D-Lysine coated black/clear bottom (15.000 c/well in 20 μl/well) by the use of a MATRIX WellMate dispenser. Plates were placed into a humidified incubator at 37° C. with 5% CO2 until the experimental day. 24 h after seeding 10 μL/well of 1.5× Fluo8 NW dye solution prepared in Tyrode's buffer 0 mM K^+ were added on top of the seeding medium. Cell plates were incubated for 40-60 min at RT in the dark. We then Injected off-line 10 μL/well of test compounds and controls 4× concentrated in Tyrode's Buffer 0 mM K+ with the CyBi®-Well instrument. Cell plates were incubated 3 minutes at RT. Finally, we injected 20 μL/well of 3× concentrated activator solution (K20-Na130-Ca2 buffer: 20 mM KCl, 130 mM NaCl, 2 mM CaCl2, 10 mM HEPES, 10 mM Glucose, final concentrations, prepared starting from “KO-Na150-Ca2” and “K150-Na0-Ca2” buffers) at FDSS7000EX instrument and read emitted fluorescence for 130 seconds.
Data analysis was performed with Genedata Screener® software and reported compounds activity as % effect in relation to the normalization standards. The Kinetic Response Value (KRV) is calculated as follows:
KRV=Maximal fluorescence recorded from second 5 to second 130 minus baseline fluorescence, computed as average from second 1 to second 2, of the kinetic trace. The KRV was normalized versus Neutral Controls and Inhibitor Controls in order to obtain the Activity[%] for each well. […] Therefore, the compound activity values were scaled (based on the two references) to a common range (two-point normalization). […]

Chain of Cav2.3 (Q15878 1-747 limits assumed): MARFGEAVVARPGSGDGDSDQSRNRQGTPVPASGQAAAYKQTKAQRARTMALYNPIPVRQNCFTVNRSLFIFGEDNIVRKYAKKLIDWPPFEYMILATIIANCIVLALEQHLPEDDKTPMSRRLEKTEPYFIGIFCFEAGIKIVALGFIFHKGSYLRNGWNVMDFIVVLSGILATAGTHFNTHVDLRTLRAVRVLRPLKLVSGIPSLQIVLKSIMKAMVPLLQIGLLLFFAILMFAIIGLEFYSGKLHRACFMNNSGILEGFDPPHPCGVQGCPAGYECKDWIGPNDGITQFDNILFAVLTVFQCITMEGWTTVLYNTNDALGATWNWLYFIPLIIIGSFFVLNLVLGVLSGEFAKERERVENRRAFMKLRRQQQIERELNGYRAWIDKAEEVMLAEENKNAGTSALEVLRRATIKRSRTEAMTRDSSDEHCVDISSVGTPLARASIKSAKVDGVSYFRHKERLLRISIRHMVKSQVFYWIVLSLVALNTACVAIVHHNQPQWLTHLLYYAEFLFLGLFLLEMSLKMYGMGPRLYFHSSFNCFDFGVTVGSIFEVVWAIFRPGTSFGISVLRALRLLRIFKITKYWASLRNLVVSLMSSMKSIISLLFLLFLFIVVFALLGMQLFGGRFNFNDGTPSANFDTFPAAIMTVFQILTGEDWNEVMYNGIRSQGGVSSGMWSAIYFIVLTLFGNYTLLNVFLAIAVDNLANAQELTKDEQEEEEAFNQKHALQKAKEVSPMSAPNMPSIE
Chain of Cav2.3 (Q15878 1126-2313 limits assumed): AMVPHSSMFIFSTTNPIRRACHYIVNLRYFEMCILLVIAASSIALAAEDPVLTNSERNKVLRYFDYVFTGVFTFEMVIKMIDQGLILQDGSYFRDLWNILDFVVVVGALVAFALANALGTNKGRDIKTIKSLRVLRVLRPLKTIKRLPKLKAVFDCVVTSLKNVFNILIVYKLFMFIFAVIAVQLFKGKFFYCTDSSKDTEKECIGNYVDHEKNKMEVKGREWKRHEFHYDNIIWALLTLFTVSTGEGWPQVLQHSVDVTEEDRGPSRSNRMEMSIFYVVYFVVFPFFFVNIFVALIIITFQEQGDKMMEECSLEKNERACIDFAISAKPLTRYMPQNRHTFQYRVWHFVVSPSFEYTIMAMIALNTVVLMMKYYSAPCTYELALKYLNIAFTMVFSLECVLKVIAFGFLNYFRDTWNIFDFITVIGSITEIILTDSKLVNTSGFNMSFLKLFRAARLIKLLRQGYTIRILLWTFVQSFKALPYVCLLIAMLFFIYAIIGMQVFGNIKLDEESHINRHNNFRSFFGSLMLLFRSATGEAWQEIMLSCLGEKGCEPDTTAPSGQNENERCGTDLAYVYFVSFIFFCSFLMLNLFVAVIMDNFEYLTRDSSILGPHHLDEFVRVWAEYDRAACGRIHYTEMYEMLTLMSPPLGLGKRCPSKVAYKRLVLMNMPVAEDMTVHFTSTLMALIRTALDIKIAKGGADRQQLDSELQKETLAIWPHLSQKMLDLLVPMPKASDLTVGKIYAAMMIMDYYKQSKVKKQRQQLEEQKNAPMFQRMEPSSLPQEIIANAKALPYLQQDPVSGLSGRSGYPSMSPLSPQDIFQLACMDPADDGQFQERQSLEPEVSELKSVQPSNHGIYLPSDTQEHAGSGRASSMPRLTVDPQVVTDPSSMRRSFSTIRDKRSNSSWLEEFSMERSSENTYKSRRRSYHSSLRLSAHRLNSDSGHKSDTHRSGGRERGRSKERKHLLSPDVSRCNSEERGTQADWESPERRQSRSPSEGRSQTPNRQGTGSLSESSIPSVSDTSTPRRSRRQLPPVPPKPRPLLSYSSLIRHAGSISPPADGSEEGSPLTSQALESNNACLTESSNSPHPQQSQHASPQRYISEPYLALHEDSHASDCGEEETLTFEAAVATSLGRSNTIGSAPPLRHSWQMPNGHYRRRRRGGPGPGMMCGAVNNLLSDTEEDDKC

As to `CC1CC2(CCC2)CN1S(=O)(=O)c1cccc2c1OC(F)(F)O2` (stereo not drawn) [Example 41, 6-((2,2-Difluorobenzo[d][1,3]dioxol-4-yl)sulfonyl)-7-methyl-6-azaspiro[3.4]octane], the IC50 was 8.32 µM.
In the case of `CC1CC2(CCC2)CN1S(=O)(=O)c1ccco1` (single isomer, unassigned) [Example 37, 6-(Furan-2-ylsulfonyl)-7-methyl-6-azaspiro[3.4]octane], the IC50 was 7.94 µM.
Then `CCC1CC2(CCCC2)CN1S(=O)(=O)c1cccs1` (single isomer, unassigned) [Example 98, 3-Ethyl-2-(thiophen-2-ylsulfonyl)-2-azaspiro[4.4]nonane], with 14.5 µM.
Take `CC(=O)N1CCc2ccc(S(=O)(=O)N3CC4(CCC4)CC3C)cc2C1` (stereo not drawn) [Example 94, 1-(7-((7-Methyl-6-azaspiro[3.4]octan-6-yl)sulfonyl)-3,4-dihydroisoquinolin-2(1H)-yl)ethan-1-one]: the IC50 is 2 µM.
The figure for `CC1CC2(CCN1S(=O)(=O)c1cccs1)CC2` (stereo not drawn) [Example 74, 5-Methyl-6-(thiophen-2-ylsulfonyl)-6-azaspiro[2.5]octane] is 6.03 µM; for `CC1CC2(CCC2)CN1S(=O)(=O)c1ccc(F)s1` (stereo not drawn) [Example 110, 6-((5-fluorothiophen-2-yl)sulfonyl)-7-methyl-6-azaspiro[3.4]octane] it is 5.01 µM; for `CCc1nc2cc(S(=O)(=O)N3CC4(CCC4)CC3CC)ccc2o1` (stereo not drawn) [Example 51, 2-Ethyl-5-((7-ethyl-6-azaspiro[3.4]octan-6-yl)sulfonyl)benzo[d]oxazole] it is 2.75 µM.
Then `CC1CC2(CCC2)CN1S(=O)(=O)c1ccccc1` (single isomer, unassigned) [Example 47, 7-methyl-6-(phenylsulfonyl)-6-azaspiro[3.4]octane], with 1.58 µM; and `Cc1nc(C)c(S(=O)(=O)N2CC3(CCC3)CC2C)s1` (single isomer, unassigned) [Example 106, 2,4-Dimethyl-5-((7-methyl-6-azaspiro[3.4]octan-6-yl)sulfonyl)thiazole], with 2.19 µM.
Then `CC1CC2(CCC2)CN1S(=O)(=O)Cc1ccccc1` (stereo not drawn) [Example 2, 6-(Benzylsulfonyl)-7-methyl-6-azaspiro[3.4]octane], with 4.27 µM; and `CC1CC2(CCC2)CN1S(=O)(=O)c1ccc(C#N)s1` (stereo not drawn) [Example 8, 5-((7-Methyl-6-azaspiro[3.4]octan-6-yl)sulfonyl)thiophene-2-carbonitrile], with 2.57 µM.
Take `COCC1CC2(CCC2)CN1S(=O)(=O)c1cccs1` (stereo not drawn) [Example 43, 7-(Methoxymethyl)-6-(thiophen-2-ylsulfonyl)-6-azaspiro[3.4]octane]: the IC50 is 10.2 µM.
As for `CCC1CC2(CCC2)CN1S(=O)(=O)c1ccc2c(c1)CN(C(=O)C(C)C)CC2` (stereo not drawn) [Example 34, 1-(7-((7-Ethyl-6-azaspiro[3.4]octan-6-yl)sulfonyl)-3,4-dihydroisoquinolin-2(1H)-yl)-2-methylpropan-1-one], the IC50 was 1.1 µM.
Then `CC1CC2(CCC2)CN1S(=O)(=O)c1ccccc1` (single isomer, unassigned) [Example 46, 7-Methyl-6-(phenylsulfonyl)-6-azaspiro[3.4]octane], with 7.76 µM; and `CC1CC2(CCC2)CN1S(=O)(=O)c1ccncc1` (stereo not drawn) [Example 11, 7-Methyl-6-(pyridin-4-ylsulfonyl)-6-azaspiro[3.4]octane], with 3.24 µM; and `CC1CC2(CCC2)CN1S(=O)(=O)c1ccc2c(c1)COC2` (stereo not drawn) [Example 65, 6-((1,3-Dihydroisobenzofuran-5-yl)sulfonyl)-7-methyl-6-azaspiro[3.4]octane], with 3.98 µM.
Regarding `Cc1cnc(S(=O)(=O)N2CC3(CCC3)CC2C)s1` (stereo not drawn) [Example 95, 5-Methyl-2-((7-methyl-6-azaspiro[3.4]octan-6-yl)sulfonyl)thiazole], the IC50 is 7.76 µM.
The figure for `CC1CC2(CCC2)CN1S(=O)(=O)c1cncnc1` (stereo not drawn) [Example 83, 7-Methyl-6-(pyrimidin-5-ylsulfonyl)-6-azaspiro[3.4]octane] is 8.91 µM.
